{"source": "paper PMC6582486", "about": "“Stapled EGFR peptide reduces inflammatory breast cancer and inhibits additional HER-driven models of cancer” (Journal of Translational Medicine, 2019)", "key": {"[1]": {"system": "MDA-MB-468 breast cancer cells", "assay_type": "cell-based, human", "details": "for increase in efficacy over unstapled EJ1: MDA-MB-468 cell viability, ratio of IC50", "text": "Fig. 1 Hydrocarbon stapling leads to increased EJ1 activity in comparison to HER-directed monoclonal therapies. a EJ1 sequence with PTD4 domain (underlined) corresponding to EGFR juxtamembrane domain sequence 643–663. Stabilized alpha helix (SAH) variations 1–5 beneath, with asterisks (*) indicating sites of staple. Control peptide (CP) with altered residues indicated by double underline. Stapled control (5) asterisks (*) indicate sites of staple. b Cartoon representation of EJ1 structure, with staple variation 5 highlighted. Positively charged residues indicated in blue, negatively charged residues in red. c Cartoon representation of CP structure, with staple variation highlighted. d Cell viability assay performed in MDA-MB-468 cells after 24 h comparing unstapled EJ1 versus staple variations SAH1, SAH4, and SAH5, with increasing concentrations. e Visualization of MDA-MB-468 cells untreated, treated with 10 µM EJ1, and 10 µM SAH5-EJ1 after 60 min. Scale bars represent 50 µm. f–h Cell viability assay performed in MDA-MB-468, MCF10A, or CHO cells over 3 days comparing treatment with Sapitinib (blue lines), SAH5-EJ1 (red lines), and SAH5-CP (grey lines). […] Data shown in d, f, g–i represent mean ± percent difference of assays performed in triplicate 1000–3000 cells were plated in 96-well plates (Falcon; Corning, NY) and allowed to adhere for 24–48 h prior to therapeutic introduction. Compounds were added and incubated on cells for 3 days in serum-containing media, followed by 2 h treatment with MTT (Sigma M5655) with the resulting formazan solubilized in DMSO. Absorbance was read at 540 nm by plate reader (uQuant, Bio-Tek Instruments). P-values were calculated from a one-way ANOVA."}, "MCF10A breast cells": {"system": "MCF10A breast cells", "experiment": "Cell viability assay (MTT), MCF10A", "assay_type": "cell-based, human", "text": "Fig. 1 Hydrocarbon stapling leads to increased EJ1 activity in comparison to HER-directed monoclonal therapies. a EJ1 sequence with PTD4 domain (underlined) corresponding to EGFR juxtamembrane domain sequence 643–663. Stabilized alpha helix (SAH) variations 1–5 beneath, with asterisks (*) indicating sites of staple. Control peptide (CP) with altered residues indicated by double underline. Stapled control (5) asterisks (*) indicate sites of staple. b Cartoon representation of EJ1 structure, with staple variation 5 highlighted. Positively charged residues indicated in blue, negatively charged residues in red. c Cartoon representation of CP structure, with staple variation highlighted. d Cell viability assay performed in MDA-MB-468 cells after 24 h comparing unstapled EJ1 versus staple variations SAH1, SAH4, and SAH5, with increasing concentrations. e Visualization of MDA-MB-468 cells untreated, treated with 10 µM EJ1, and 10 µM SAH5-EJ1 after 60 min. Scale bars represent 50 µm. f–h Cell viability assay performed in MDA-MB-468, MCF10A, or CHO cells over 3 days comparing treatment with Sapitinib (blue lines), SAH5-EJ1 (red lines), and SAH5-CP (grey lines). […] Absorbance was read at 540 nm by plate reader (uQuant, Bio-Tek Instruments). P-values were calculated from a one-way ANOVA."}, "[2]": {"system": "luciferized murine glioma (Ink4a/ARF-/-; hEGFRvIII)", "experiment": "Orthotopic EGFRvIII glioblastoma mouse model, survival", "assay_type": "in vivo, nude mice", "details": "SAH5-EJ1 10 µg/g IV (N = 4), control peptide N = 6", "procedure": "Patient samples used were provided by the Biobank Core Facility at Barrow Neurological Institute. Samples were de-identified and conformed to the Biobank IRB protocol. Patient-derived cell lines (GB16 and GB71) were established from resected primary GBM tumor tissue. Tissue was processed using the Gentle MACS Dissociator and Tumor Tissue Dissociation kit (Miltenyi Biotec Inc.; Auburn, CA). Animal husbandry was performed according to the guidelines of St. Joseph Hospital and Medical Center and Barrow Neurological Institute under the Institutional Animal Care and Use Committee-approved protocol. Five- to six-week-old CrTac: NCr-Foxn1^nu nude mice (Taconic Biosciences; Hudson, NY) were used for in vivo orthotropic transplant of luciferized murine glioma model (Ink4a/ARF^−/−; hEGFRvIII). For orthotopic transplants, 2 μL of dissociated cells at a density of 100,000 cells/μL were injected in the right striatum, as described previously. In vivo tumor growth was measured by IVIS xenogen bioluminescence imaging (BLI) system after IP injection of 150 mg/kg Luciferin (Gold Biotechnology; St, Louis, MO) every week after 1-month post-surgery. […]\nFig. 2 SAH5-EJ1 enters cells, colocalizes with mitochondria, and survives in vivo, resulting in glioblastoma-derived cell death and glioma mouse model survival. […] H Luminescence distribution throughout organs. […]"}, "[3]": {"experiment": "28-day toxicity study: treatment observation frequency", "assay_type": "in vivo, CD-1 mice", "details": "for Treatment observation: Animals with Signs: 28 days", "procedure": "Toxicology was performed by IITRI. The study was conducted in compliance with the US Food and Drug Administration (FDA) good laboratory practice (GLP) Regulations (Code of Federal Regulations Title 21 Part 58) to evaluate the toxicokinetics, local tolerability, immunogenicity, and potential toxicity of SAH5-EJ1 following three times per week intravenous (IV) dosing for 28 days in mice. Male and female CD-1 IGS [Crl:CD1(ICR)] mice (135 per sex) were received from Wilmington, MA-based Charles River Laboratories, Inc.’s Kingston facility (Stone Ridge, NY)."}}, "note": "Read-outs that look alike come from different tables or passages of the source. Where a SMILES comes first, the peptide text is derived from it. Bridges are numbered along the chain shown (N, C = ends). [ ]: non-standard residue; d: D form. R8 = C=CCCCCCC[C@@](C)(N)C(=O)O; S5 = C=CCCC[C@](C)(N)C(=O)O", "data": [{"smiles": "CC[C@H](C)[C@H](NC(=O)[C@H](Cc1c[nH]cn1)NC(=O)[C@H](CCCNC(=N)N)NC(=O)[C@H](CCCNC(=N)N)NC(=O)[C@H](CCCNC(=N)N)NC(=O)[C@H](CCSC)NC(=O)[C@H](Cc1ccccc1)NC(=O)[C@H](C)NC(=O)[C@H](CCCNC(=N)N)NC(=O)[C@H](C)NC(=O)[C@H](CCC(N)=O)NC(=O)[C@H](CCCNC(=N)N)NC(=O)[C@H](C)NC(=O)[C@H](C)NC(=O)[C@H](C)NC(=O)[C@H](CCCNC(=N)N)NC(=O)[C@H](C)NC(=O)[C@@H](N)Cc1ccc(O)cc1)C(=O)N[C@H](C(=O)N[C@@H](CCCNC(=N)N)C(=O)N[C@@H](CCCCN)C(=O)N[C@@H](CCCNC(=N)N)C(=O)N[C@]1(C)CCCCCCC=CCCC[C@@](C)(C(=O)N[C@@H](CCCNC(=N)N)C(=O)N[C@@H](CCC(=O)O)C(N)=O)NC(=O)[C@H](CCC(N)=O)NC(=O)[C@H](CC(C)C)NC(=O)[C@H](CC(C)C)NC(=O)[C@H](CCCNC(=N)N)NC(=O)[C@H](CCCNC(=N)N)NC(=O)[C@H](CC(C)C)NC1=O)C(C)C", "note": "[SAH5-EJ1] (H-YARAAARQARAFMRRRHIVRKR[R8]LRRLLQ[S5]RE-NH2; staple 23-30)", "values": [{"measurement": "IC50", "setting": "[1]; 24 h", "result": 2500, "unit": "nM"}, {"measurement": "cell death", "setting": "[1]; MDA-MB-468, 4 µM, after 1 day", "result": "complete cell death"}, {"measurement": "increase in efficacy over unstapled EJ1", "setting": "[1]", "result": "more than 7 fold"}, {"measurement": "increase in efficacy over unstapled EJ1", "setting": "[1]; listed as SAH-EJ1", "result": 7.2, "unit": "fold"}, {"measurement": "concentration at which complete cell death was observed", "setting": "MCF10A breast cells", "result": 10, "unit": "µM"}, {"measurement": "mice alive after 72 days", "setting": "[2]", "result": 75, "unit": "%"}, {"measurement": "Treatment observation: Discolored Urine (animals)", "setting": "[3]; female, 5 mg/kg, 10 examined", "result": 0}, {"measurement": "Treatment observation: General (animals)", "setting": "[3]; female, 5 mg/kg, 10 examined", "result": 0}, {"measurement": "Treatment observation: Hunched Posture (animals)", "setting": "[3]; female, 5 mg/kg, 10 examined", "result": 0}, {"measurement": "Treatment observation: Hypoactive (animals)", "setting": "[3]; female, 5 mg/kg, 10 examined", "result": 0}, {"measurement": "Treatment observation: Normal (animals)", "setting": "[3]; female, 5 mg/kg, 10 examined", "result": 10}, {"measurement": "Treatment observation: Animals with Signs", "setting": "[3]; female, 5 mg/kg, 10 examined", "result": 0}, {"measurement": "Treatment observation: Discolored Urine (animals)", "setting": "[3]; female, 10 mg/kg, 10 examined", "result": 0}, {"measurement": "Treatment observation: General (animals)", "setting": "[3]; female, 10 mg/kg, 10 examined", "result": 0}, {"measurement": "Treatment observation: Hunched Posture (animals)", "setting": "[3]; female, 10 mg/kg, 10 examined", "result": 0}, {"measurement": "Treatment observation: Hypoactive (animals)", "setting": "[3]; female, 10 mg/kg, 10 examined", "result": 0}, {"measurement": "Treatment observation: Normal (animals)", "setting": "[3]; female, 10 mg/kg, 10 examined", "result": 10}, {"measurement": "Treatment observation: Animals with Signs", "setting": "[3]; female, 10 mg/kg, 10 examined", "result": 0}, {"measurement": "Treatment observation: Discolored Urine (animals)", "setting": "[3]; female, 15 mg/kg, 15 examined", "result": 1}, {"measurement": "Treatment observation: General (animals)", "setting": "[3]; female, 15 mg/kg, 15 examined", "result": 2}, {"measurement": "Treatment observation: Hunched Posture (animals)", "setting": "[3]; female, 15 mg/kg, 15 examined", "result": 1}, {"measurement": "Treatment observation: Hypoactive (animals)", "setting": "[3]; female, 15 mg/kg, 15 examined", "result": 2}, {"measurement": "Treatment observation: Normal (animals)", "setting": "[3]; female, 15 mg/kg, 15 examined", "result": 15}, {"measurement": "Treatment observation: Animals with Signs", "setting": "[3]; female, 15 mg/kg, 15 examined", "result": 2}, {"measurement": "Treatment observation: Discolored Urine (animals)", "setting": "[3]; male, 5 mg/kg, 10 examined", "result": 0}, {"measurement": "Treatment observation: General (animals)", "setting": "[3]; male, 5 mg/kg, 10 examined", "result": 0}, {"measurement": "Treatment observation: Normal (animals)", "setting": "[3]; male, 5 mg/kg, 10 examined", "result": 10}, {"measurement": "Treatment observation: Rough Coat (animals)", "setting": "[3]; male, 5 mg/kg, 10 examined", "result": 0}, {"measurement": "Treatment observation: Animals with Signs", "setting": "[3]; male, 5 mg/kg, 10 examined", "result": 0}, {"measurement": "Treatment observation: Discolored Urine (animals)", "setting": "[3]; male, 10 mg/kg, 10 examined", "result": 0}, {"measurement": "Treatment observation: General (animals)", "setting": "[3]; male, 10 mg/kg, 10 examined", "result": 0}, {"measurement": "Treatment observation: Normal (animals)", "setting": "[3]; male, 10 mg/kg, 10 examined", "result": 10}, {"measurement": "Treatment observation: Rough Coat (animals)", "setting": "[3]; male, 10 mg/kg, 10 examined", "result": 0}, {"measurement": "Treatment observation: Animals with Signs", "setting": "[3]; male, 10 mg/kg, 10 examined", "result": 0}, {"measurement": "Treatment observation: Discolored Urine (animals)", "setting": "[3]; male, 15 mg/kg, 15 examined", "result": 1}, {"measurement": "Treatment observation: General (animals)", "setting": "[3]; male, 15 mg/kg, 15 examined", "result": 2}, {"measurement": "Treatment observation: Normal (animals)", "setting": "[3]; male, 15 mg/kg, 15 examined", "result": 15}, {"measurement": "Treatment observation: Rough Coat (animals)", "setting": "[3]; male, 15 mg/kg, 15 examined", "result": 2}, {"measurement": "Treatment observation: Animals with Signs", "setting": "[3]; male, 15 mg/kg, 15 examined", "result": 2}]}]}
